Laboratory results taken from US20230049952A1, “METHODS AND COMPOUNDS FOR RESTORING MUTANT P53 FUNCTION” (PMV Pharmaceuticals, Inc., priority 2020, published 2023).
Where “and” joins values, the source holds several entries; their conditions need not be identical. Equal entries are not always repeated.

Assays:
in vitro = experiment: in vitro
Experimental: All working solutions were freshly prepared similarly as described for the test article working solution.
Assay for determining Blood to plasma ratio: Pooled male CD-1 mouse, Sprague-Dawley rat, beagle dog and cynomolgus monkey plasma, and mixed gender human blood with EDTAK2 as anticoagulant were stored on wet ice and used the same day. […] After mixing thoroughly, 0.6 mL of spiked blood was transferred to a 96-well plate in triplicate. Concurrently, control compounds were spiked into each species blood in the same fashion to generate the final concentration of 2.0 μM.
The rest of the spiked blood samples were immediately placed into a humidified incubator with 5% CO2 at 37° C., with constant swiveling at 500 rpm for 60 min on a platform shaker. […] The T60-plasma samples for analysis were obtained by taking 50 μL of plasma from each well, mixed with 50 μL of blank blood and 100 μL of water, followed by addition of 600 μL stop solution. […] All the T0, T60-blood and T60-plasma samples were shaken vigorously at 800 rpm for 30 min followed by the centrifugation at 3220×g at 20° C. for 20 min. 100 μL aliquot of supernatant was diluted with 100 μL of water and mixed well for LC-MS/MS analysis.
Measurement of Hematocrit: The hematocrit (the volume percentage of erythrocytes in blood) was determined in triplicate for each species by centrifuging the blood samples with a HAEMATOKRIT 200 at 9440×g for 5 min.
Data analysis: The ratio of compound concentrations in whole blood over plasma (KB/P) and % Recovery in blood were calculated by the following equations: KB/P=[…]([T60-blood]/[T60-plasma]), where [T60-blood] is the peak area ratios of analyte/internal standard in whole blood sample at 60 min; [T60-plasma] is the peak area ratios of analyte/internal standard in plasma sample at 60 min; [T0-blood] is the peak area ratios of analyte/internal standard in whole blood sample at time zero.

CYP3A = CYP3A (Homo sapiens, UniProt P08684); experiment: in vitro; settings: both, microsomes, pH 7.4, % of Control Enzyme Activity, HLM; for activity at 10 min, 0.037 µM: 0.0370 μM
Chain of CYP3A (P08684 2-503): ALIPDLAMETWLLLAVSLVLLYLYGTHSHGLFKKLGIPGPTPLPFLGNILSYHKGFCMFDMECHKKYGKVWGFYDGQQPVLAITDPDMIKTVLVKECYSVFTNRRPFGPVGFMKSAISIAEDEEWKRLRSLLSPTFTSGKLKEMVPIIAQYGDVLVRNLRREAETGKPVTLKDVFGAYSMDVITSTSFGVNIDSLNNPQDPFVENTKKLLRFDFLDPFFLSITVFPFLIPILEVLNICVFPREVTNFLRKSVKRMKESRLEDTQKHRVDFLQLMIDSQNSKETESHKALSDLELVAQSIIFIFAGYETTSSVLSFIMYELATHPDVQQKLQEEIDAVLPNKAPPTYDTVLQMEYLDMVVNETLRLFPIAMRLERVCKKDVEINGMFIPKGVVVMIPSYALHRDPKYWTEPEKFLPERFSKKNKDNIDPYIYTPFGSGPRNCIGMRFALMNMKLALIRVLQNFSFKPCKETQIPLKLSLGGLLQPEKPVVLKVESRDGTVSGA

[1] = Compound 2 and metabolites in rat plasma, 50 mg/kg PO QD×10; assay type: in vivo; settings: for Average Concentration: rat plasma
Experimental: The proposed metabolite pathway was determined in vitro, and levels of potential metabolites were measured by LC/MS-MS in rat plasma remaining from the dose rising 10-day repeat dose study in rats. Six potential metabolites were quantified in the low (50 mg/kg) single dose rats. […] Rats were rotated between timepoints to form a composite PK curve. […] A 100 μL aliquot of the supernatant was transferred to the sample plate and mixed with 100 μL of water, then the plate was shaken at 800 rpm for 10 min. 0.5-2 μL supernatant was then injected into a Triple Quad 6500+ for LC-MS/MS analysis. The standard curve was generated at 1-3000 ng/mL for the compounds in rat plasma (EDTA-K2).
The male and female PK parameters were averaged together since there was <2-fold variation between the genders. All values deemed below the level of quantification (BLQ) were excluded from the PK parameters calculations.

[2] = Compound 2 50 mg/kg PO QD×1, 24 h
[3] = Compound 2 50 mg/kg PO QD×10, 48 h post tenth dose
[4] = Compound 2 50 mg/kg PO QD×10, 72 h post tenth dose
[5] = Compound 2 50 mg/kg PO QD×10, 96 h post tenth dose

CCN(CC)CCCC(C)Nc1ccnc2cc(Cl)ccc12 (stereo not shown) [Chloroquine, chloroquine]
recovery at 60 min, 2 μM (in vitro; both, human): 90.8 ± 6.07%
recovery at 60 min, 2 μM (in vitro; male, CD-1, mouse): 99.4 ± 1.7%
recovery at 60 min, 2 μM (in vitro; male, Sprague-Dawley, rat): 100 ± 1.86%
recovery at 60 min, 2 μM (in vitro; male, beagle, dog): 113 ± 3.57%
recovery at 60 min, 2 μM (in vitro; male, cynomolgus monkey): 96.9 ± 1.83%

CC(=O)N1CCN(c2ccc(OCC3COC(Cn4ccnc4)(c4ccc(Cl)cc4Cl)O3)cc2)CC1 (stereo not shown) [Ketoconazole, ketoconazole]
activity at 10 min, 0.0123 µM (CYP3A; Midazolam probe): 74.5%
activity at 10 min, 0.037 µM (CYP3A; Midazolam probe): 49.9%
activity at 10 min, 3 µM (CYP3A; Midazolam probe): 5.38%
activity at 10 min, 0.0123 µM (CYP3A; Testosterone probe): 58.4%
activity at 10 min, 0.037 µM (CYP3A; Testosterone probe): 32.9%
activity at 10 min, 0.333 µM (CYP3A; Testosterone probe, 0.333 μM): 6.75%
activity at 10 min, 1 µM (CYP3A; Testosterone probe, 1.00 μM): 3.54%
activity at 10 min, 3 µM (CYP3A; Testosterone probe): 1.56%

CCn1c(C#CCNc2ccc(Cl)cc2)cc2cc(CNC3CCN(C)CC3)ccc21 [Compound 7, 1-(p-Chlorophenylamino)-3-{1-ethyl-5-[(1-methyl-4-piperidylamino)methyl]-1H-indol-2-yl}-2-propyne]
calculated concentration in rat plasma (individual rats) ([1]; Compound 2 50 mg/kg PO QD×1, 1 h, 50 mg/kg): 1.44 ng/mL and 1.36 ng/mL and 1.19 ng/mL and 1.33 ng/mL and 1.49 ng/mL and 1.39 ng/mL
calculated concentration in rat plasma (individual rats) ([1]; Compound 2 50 mg/kg PO QD×1, 2 h, 50 mg/kg): 4.12 ng/mL and 1.95 ng/mL and 1.67 ng/mL and 1.93 ng/mL and 1.81 ng/mL and 1.70 ng/mL
calculated concentration in rat plasma (individual rats) ([1]; Compound 2 50 mg/kg PO QD×1, 4 h, 50 mg/kg): 2.46 ng/mL and 2.66 ng/mL and 2.27 ng/mL and 1.68 ng/mL and 1.81 ng/mL and 2.04 ng/mL
calculated concentration in rat plasma (individual rats) ([1]; Compound 2 50 mg/kg PO QD×1, 8 h, 50 mg/kg): 3.52 ng/mL and 2.72 ng/mL and 2.19 ng/mL and 2.24 ng/mL and 2.20 ng/mL and 2.11 ng/mL
calculated concentration in rat plasma (individual rats) [1, 2]: BLQ
calculated concentration in rat plasma (individual rats) ([1]; Compound 2 50 mg/kg PO QD×10, 1 h post tenth dose, 50 mg/kg): 1.25 ng/mL and 1.46 ng/mL and 1.42 ng/mL and 1.49 ng/mL and 1.92 ng/mL and 1.65 ng/mL
calculated concentration in rat plasma (individual rats) ([1]; Compound 2 50 mg/kg PO QD×10, 2 h post tenth dose, 50 mg/kg): 1.81 ng/mL and 2.19 ng/mL and 1.99 ng/mL and 1.41 ng/mL and 1.79 ng/mL and 1.66 ng/mL
calculated concentration in rat plasma (individual rats) ([1]; Compound 2 50 mg/kg PO QD×10, 4 h post tenth dose, 50 mg/kg): 2.46 ng/mL and 2.18 ng/mL and 2.20 ng/mL and 2.42 ng/mL and 2.00 ng/mL and 1.30 ng/mL
calculated concentration in rat plasma (individual rats) ([1]; Compound 2 50 mg/kg PO QD×10, 8 h post tenth dose, 50 mg/kg): 2.31 ng/mL and 2.45 ng/mL and 2.79 ng/mL and 1.81 ng/mL and 2.20 ng/mL and 2.21 ng/mL
calculated concentration in rat plasma (individual rats) ([1]; Compound 2 50 mg/kg PO QD×10, 24 h post tenth dose, 50 mg/kg): BLQ (3×) and 1.07 ng/mL and 1.06 ng/mL and 1.16 ng/mL
calculated concentration in rat plasma (individual rats) [1, 3]: BLQ
calculated concentration in rat plasma (individual rats) [1, 4]: BLQ
calculated concentration in rat plasma (individual rats) [1, 5]: BLQ
% of Parent ([1]; Day 1, of Compound 2 AUC0-24, rat, 50 mg/kg PO): 0.0%
AUC0-24 ([1]; Day 1, rat, Compound 2 50 mg/kg PO): 0.016 µg·h/mL
% of Parent ([1]; Day 10, of Compound 2 AUC0-last, rat, 50 mg/kg PO QD×10): 0.0%
AUC0-last ([1]; Day 10, rat, Compound 2 50 mg/kg PO QD×10): 0.028 µg·h/mL
Average Concentration ([1]; Compound 2 50 mg/kg PO QD×1, 1 h): 1.37 ng/mL
Average Concentration ([1]; Compound 2 50 mg/kg PO QD×1, 2 h): 2.20 ng/mL
Average Concentration ([1]; Compound 2 50 mg/kg PO QD×1, 4 h): 2.15 ng/mL
Average Concentration ([1]; Compound 2 50 mg/kg PO QD×1, 8 h): 2.50 ng/mL
Average Concentration [1, 2]: BLQ
Average Concentration ([1]; Compound 2 50 mg/kg PO QD×10, 1 h post tenth dose): 1.53 ng/mL
Average Concentration ([1]; Compound 2 50 mg/kg PO QD×10, 2 h post tenth dose): 1.81 ng/mL
Average Concentration ([1]; Compound 2 50 mg/kg PO QD×10, 4 h post tenth dose): 2.09 ng/mL
Average Concentration ([1]; Compound 2 50 mg/kg PO QD×10, 8 h post tenth dose): 2.30 ng/mL
Average Concentration ([1]; Compound 2 50 mg/kg PO QD×10, 24 h post tenth dose): 1.10 ng/mL
Average Concentration [1, 3]: BLQ
Average Concentration [1, 4]: BLQ
Average Concentration [1, 5]: BLQ
